Structures can show the parent of a compound that is named as a salt.

The first test addresses T1, protein farnesyltransferase (Rattus norvegicus, UniProt Q02293+Q04631).
T1 construct: Rat brain protein farnesyltransferase activity is measured; from tissue; host or cells: rat brain; purified according to Reiss et al., Cell 62:81-88 (1990), steps one through three
The test can be described thus: in vitro inhibition of protein farnesyltransferase (scintillation proximity assay, biotin-K Ras B fragment). The settings on record: at 1 × 10^-6 M. The class given is biochemical. In outline:
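Rat brain enzyme, purified through three steps, in a scintillation proximity assay kit with biotin-K Ras B fragment substrate at 0.1 mM final. Value is % inhibition of farnesylation.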
For the compound `CSCC[C@H](NC(=O)c1ccc(COCC(CC2CCCCC2)CC2CCCCC2)cc1-c1ccccc1C)C(=O)O` [Example 889], the “% inhibition of farnesyltransferase” value was found to be 95%.
Take `CSCC[C@H](NC(=O)c1cc(Cc2ccccc2)c(COCc2ccccc2)cc1-c1ccccc1C)C(=O)O` [Example 923]: the “% inhibition of farnesyltransferase” value came out at 78%.
On to `CSCC[C@H](NC(=O)c1cc(Cc2ccccc2)c(COCc2ccco2)cc1-c1ccccc1C)C(=O)O` [Example 924], for which the “% inhibition of farnesyltransferase” value was 77%.
On to `CSCC[C@H](NC(=O)c1cc(Cc2ccccc2)c(COCCCc2ccccc2)cc1-c1ccccc1C)C(=O)O` [Example 925], for which the “% inhibition of farnesyltransferase” value is given as 87%.
As for `COc1ccc(CCOCc2ccc(C(=O)N[C@@H](CCSC)C(=O)O)c(-c3ccccc3C)c2)cc1` [Example 937], the “% inhibition of farnesyltransferase” value came to 95%.

The same test, now with this note: at 1 × 10^-6 M; read-out: % inhibition of farnesyltransferase.
One may read the inhibition as how much of the control response was suppressed. As to `CSCC[C@H](NC(=O)c1ccc(NC(=O)OCc2cncs2)cc1-c1ccccc1C)C(=O)O` [Example 902, N-[4-N-(thiazol-5-ylmethoxycarbonyl)amino-2-(2-methylphenylbenzoyl]methioninelithium salt], the inhibition at 1 µM came to 85%.
In the case of `CSCC[C@H](NC(=O)c1ccc(CN(CC(C)C)C(CC2CCCCC2)CC2CCCCC2)cc1-c1ccccc1C)C(=O)O` [Example 908], the inhibition at 1 µM came to 88%.
For the compound `CSCC[C@H](NC(=O)c1ccc(CN(C(=O)c2ccccc2)C(CC2CCCCC2)CC2CCCCC2)cc1-c1ccccc1C)C(=O)O` [Example 910, N-[4-(N-benzoyl-N-(1,3-Dicyclohexylpropan-2-yl)aminomethyl)-2-(2-methylphenyl)-benzoyl]methionine], the inhibition at 1 µM came out at 42%.
In the case of `CSCC[C@H](NC(=O)c1ccc(CN(C(CC2CCCCC2)CC2CCCCC2)S(=O)(=O)c2ccccc2)cc1-c1ccccc1C)C(=O)O` [Example 911, N-[4-(N-Benzenesulfoyl-N-(1,3-Dicyclohexylpropan-2-yl)aminomethyl)-2-(2-methylphenyl)-benzoyl]methionine], the inhibition at 1 µM was determined as 65%.
`CSCC[C@H](NC(=O)c1ccc(CNCc2ccccc2)cc1-c1ccccc1)C(=O)O` [Example 936, N-[4-(N-benzylaminomethyl)-2-phenylbenzoyl]methionine hydrochloride salt]: the inhibition at 1 µM amounted to 69%.

Still in this test, the particulars now being: at 1 × 10^-7 M.
Regarding `CSCC[C@H](NC(=O)c1ccc(COCc2cnco2)cc1-c1ccccc1C)C(=O)[O-].[Li+]` [Example 891], the “% inhibition of farnesyltransferase” value is listed as 94%.
Same read-out and setting: for `CSCC[C@H](NC(=O)c1ccc(COCc2cnc(-c3cccc(Cl)c3)o2)cc1-c1ccccc1C)C(=O)[O-].[Li+]` [Example 893] the value was 87%; for `CSCC[C@H](NC(=O)c1ccc(COCc2cnc(-c3ccc(Cl)cc3)o2)cc1-c1ccccc1C)C(=O)[O-].[Li+]` [Example 894], 89%.
With `CSCC[C@H](NC(=O)c1ccc(COCc2cnc(C(C)(C)C)s2)cc1-c1ccccc1C)C(=O)[O-].[Li+]` [Example 895], the “% inhibition of farnesyltransferase” value is 92%.
For the compound `COc1ncc(COCc2ccc(C(=O)N[C@@H](CCSC)C(=O)O)c(-c3ccccc3C)c2)s1` [Example 896], the “% inhibition of farnesyltransferase” value is 96%.
Still for that read-out and setting: for `CSCC[C@H](NC(=O)c1ccc(COCc2cnc(-c3ccc(F)cc3)s2)cc1-c1ccccc1C)C(=O)O` [Example 900] the value was 95%.
On the same count and under the same terms, the value for `CCCC(CCC)NOCc1ccc(C(=O)N[C@@H](CCSC)C(=O)O)c(-c2ccccc2C)c1` [Example 929] was 81%.
Consider `COc1ccccc1COCc1ccc(C(=O)N[C@@H](CCSC)C(=O)[O-])c(-c2ccccc2C)c1.[Li+]` [Example 931], for which the “% inhibition of farnesyltransferase” value turned out to be 98%.
Turning to `CSCC[C@H](NC(=O)c1ccc(COCc2ccc(Cl)cc2)cc1-c1ccccc1C)C(=O)[O-].[Li+]` [Example 933], the “% inhibition of farnesyltransferase” value is 91%.
With `COc1ccc(COCc2ccc(C(=O)N[C@@H](CCSC)C(=O)[O-])c(-c3ccccc3C)c2)cc1.[Li+]` [Example 935], the “% inhibition of farnesyltransferase” value is reported as 72%.
Turning to `CSCC[C@H](NC(=O)c1ccc(COCc2ccc(C(C)C)cc2)cc1-c1ccccc1C)C(=O)[O-].[Li+]` [Example 940], the “% inhibition of farnesyltransferase” value stood at 92%.
`CSCC[C@H](NC(=O)c1ccc(COCc2cccc(N(C)C)c2)cc1-c1ccccc1C)C(=O)O` [Example 941]: the “% inhibition of farnesyltransferase” value came to 90%.

Still in this test, the particulars now being: at 1 × 10^-7 M; read-out: % inhibition of farnesyltransferase.
Turning to `CCSC[C@H](CC(C)C)N(C)Cc1ccc(C(=O)N[C@@H](CCSC)C(=O)O)c(-c2ccccc2C)c1` [Example 906, N-[4-(N-(1-ethylthio-4-methylpentan-2-yl)-N-methylaminomethyl)-2-(2-methylphenyl)benzoyl]-methionine], the inhibition at 0.1 µM stood at 88%.
Regarding `CCCCN(CCCC)C(=O)CNCc1ccc(C(=O)N[C@@H](CCSC)C(=O)O)c(-c2ccccc2C)c1` [Example 912, N-[4-(N-(N,N-dibutylacetamido)aminomethyl)-2-(2-methylphenyl)benzoyl]methionine], the inhibition at 0.1 µM stood at 85%.
For the compound `CCCCN(CCCC)C(=O)CN(C)Cc1ccc(C(=O)N[C@@H](CCSC)C(=O)O)c(-c2ccccc2C)c1` [Example 913, N-[4-(N-(N,N-dibutylacetamido)-N-methylaminomethyl)-2-(2-methylphenyl)benzoyl]methionine], the inhibition at 0.1 µM was 89%.
The same measure, in the same setting: the value for `CSCC[C@H](NC(=O)c1ccc(CNCC(=O)N(Cc2ccccc2)Cc2ccccc2)cc1-c1ccccc1C)C(=O)O` [Example 914, N-[4-(N-(N,N-dibenzylacetamido)aminomethyl)-2-(2-methylphenyl)benzoyl]methionine] was 91%; that for `CCCCN(CCCC)Cc1ccc(C(=O)N[C@@H](CCSC)C(=O)O)c(-c2ccccc2C)c1` [Example 917, N-[4-(N,N-Dibutylaminomethyl)-2-(2-methylphenyl)benzoyl]methionine] was 78%.

Still in this test, the particulars now being: at 1 × 10^-8 M.
On to `CSCC[C@H](NC(=O)c1ccc(CON=C(Cc2ccccc2)Cc2ccccc2)cc1-c1ccccc1C)C(=O)O` [Example 888], for which the “% inhibition of farnesyltransferase” value was 86%.
Take `CSCC[C@H](NC(=O)c1ccc(COCc2cnc(-c3ccccc3Cl)o2)cc1-c1ccccc1C)C(=O)[O-].[Li+]` [Example 892]: the “% inhibition of farnesyltransferase” value turned out to be 59%.
`CSCC[C@H](NC(=O)c1ccc(COCc2cnc(-c3ccccc3Cl)s2)cc1-c1ccccc1C)C(=O)[O-].[Li+]` [Example 897]: the “% inhibition of farnesyltransferase” value turned out to be 76%.
In the case of `CSCC[C@H](NC(=O)c1ccc(COCc2cnc(-c3cccc(F)c3)s2)cc1-c1ccccc1C)C(=O)[O-].[Li+]` [Example 898], the “% inhibition of farnesyltransferase” value amounted to 82%.
`CSCC[C@H](NC(=O)c1ccc(COCc2cnc(-c3cccc(Cl)c3)s2)cc1-c1ccccc1C)C(=O)[O-].[Li+]` [Example 899]: the “% inhibition of farnesyltransferase” value was 88%.
On the same count and under the same terms, for `CSCC[C@H](NC(=O)c1ccc(COCc2cnc(-c3ccc(Cl)cc3)s2)cc1-c1ccccc1C)C(=O)[O-].[Li+]` [Example 901] the value was 84%; for `CSCC[C@H](NC(=O)c1ccc(COCc2cc(-c3ccc(Cl)cc3)co2)cc1-c1ccccc1C)C(=O)[O-].[Li+]` [Example 904], 85%.
On to `CSCC[C@H](NC(=O)c1ccc(COCc2ccccc2Cl)cc1-c1ccccc1C)C(=O)[O-].[Li+]` [Example 930], for which the “% inhibition of farnesyltransferase” value was 66%.
On to `COc1cccc(COCc2ccc(C(=O)N[C@@H](CCSC)C(=O)[O-])c(-c3ccccc3C)c2)c1.[Li+]` [Example 932], for which the “% inhibition of farnesyltransferase” value was determined as 60%.
Same read-out and setting: for `CSCC[C@H](NC(=O)c1ccc(COCc2cccc(Cl)c2)cc1-c1ccccc1C)C(=O)[O-].[Li+]` [Example 934] the value was 71%; for `CSCC[C@H](NC(=O)c1ccc(COCc2ccccc2C(C)C)cc1-c1ccccc1C)C(=O)[O-].[Li+]` [Example 938], 61%; for `CSCC[C@H](NC(=O)c1ccc(COCc2cccc(C(C)C)c2)cc1-c1ccccc1C)C(=O)[O-].[Li+]` [Example 939], 72%.

The same test, now with this note: at 1 × 10^-8 M; read-out: % inhibition of farnesyltransferase.
Consider `CCSC[C@H](CC(C)C)NCc1ccc(C(=O)N[C@@H](CCSC)C(=O)O)c(-c2ccccc2C)c1` [Example 905, N-[4-(N-(1-ethylthio-4-methylpentan-2-yl)aminomethyl)-2-(2-methylphenyl)benzoyl]-methionine], for which the inhibition at 0.01 µM came to 86%.
Still for that read-out and setting: the value for `CSCC[C@H](NC(=O)c1ccc(CN(C)C(CC2CCCCC2)CC2CCCCC2)cc1-c1ccccc1C)C(=O)O` [Example 907, N-[4-(N-(1,3-Dicyclohexylpropan-2-yl)-N-methylaminomethyl)-2-(2-methylphenyl)-benzoyl]methionine] was 79%; that for `CSCC[C@H](NC(=O)c1ccc(CN(C(C)=O)C(CC2CCCCC2)CC2CCCCC2)cc1-c1ccccc1C)C(=O)O` [Example 909, N-[4-(N-acetyl-N-(1,3-Dicyclohexylpropan-2-yl)aminomethyl)-2-(2-methylphenyl)-benzoyl]methionine] was 79%.
With `CCCCS(=O)(=O)N(CCC1CCCCC1)Cc1ccc(C(=O)N[C@@H](CCSC)C(=O)O)c(-c2ccccc2C)c1` [Example 916], the inhibition at 0.01 µM amounted to 96%.
For `CCCCS(=O)(=O)N(CCCc1ccccc1)Cc1ccc(C(=O)N[C@@H](CCSC)C(=O)O)c(-c2ccccc2C)c1` [Example 927, N-[4-(N-Butanesulfonyl-N-(3-phenylpropyl)aminomethyl)-2-(2-methylphenyl)benzoyl]methionine], the inhibition at 0.01 µM turned out to be 74%.
For `CCCCN(CCc1ccccc1)Cc1ccc(C(=O)N[C@@H](CCSC)C(=O)O)c(-c2ccccc2C)c1` [Example 928, N-[4-(N-Butyl-N-(2-phenylethyl)aminomethyl)-2-(2-methylphenyl)benzoyl]methionine], the inhibition at 0.01 µM came to 84%.
